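Step 1: Grow cells in 96-well plates. Step 2: Expose to compound for 48 hours at 5 concentrations. Step 3: Interpolate endpoints linearly; if unreached, use highest concentration. At the GI50, growth is halved.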 Calls of active or inactive are those of the source. No stated cut-off is given here; in the data, active = GI50 up to about 1.1 µM and inactive = higher.
Columns and labels:
Assay in all cases: DTP human tumour cell line panel, 48 h
DU-145 = system: DU-145
HCT-116 = system: HCT-116
HT-29 = system: HT-29
M14 = system: M14
NCI-H522 = system: NCI-H522
NCI/ADR-RES = system: NCI/ADR-RES
OVCAR-3 = system: OVCAR-3
OVCAR-4 = system: OVCAR-4
OVCAR-5 = system: OVCAR-5
PC-3 = system: PC-3
RXF 393 = system: RXF 393
SF-295 = system: SF-295
SK-MEL-28 = system: SK-MEL-28
SK-MEL-5 = system: SK-MEL-5
SNB-75 = system: SNB-75
TK-10 = system: TK-10
UACC-62 = system: UACC-62
Malme-3M = system: Malme-3M
RPMI-8226 = system: RPMI-8226
A498 = system: A498

Measured: GI50

CC1=CC(=O)/C(=C/n2c(=S)[nH]c3cc(C)ccc32)C(=O)O1
inactive: DU-145 > 100 µM | HCT-116 > 100 µM | HT-29 > 100 µM | M14 > 100 µM | NCI-H522 > 100 µM | NCI/ADR-RES > 100 µM | OVCAR-3 > 100 µM | OVCAR-4 73.8 µM | OVCAR-5 > 100 µM | PC-3 > 100 µM | RXF 393 6.21 µM | SF-295 > 100 µM | SK-MEL-28 > 100 µM | SK-MEL-5 > 100 µM | SNB-75 > 100 µM | TK-10 > 100 µM | UACC-62 > 100 µM

CCOC(=O)C(=O)/C(=C/NC(=S)Nc1ccc(Cl)c(Cl)c1)C(=O)OCC
inactive: DU-145 > 100 µM | HCT-116 75 µM | HT-29 56.9 µM | M14 75.3 µM | Malme-3M > 100 µM | NCI/ADR-RES 50.1 µM | OVCAR-3 72.9 µM | OVCAR-4 88.7 µM | OVCAR-5 > 100 µM | PC-3 47 µM | RPMI-8226 17.9 µM | RXF 393 37.8 µM | SF-295 > 100 µM | SK-MEL-28 > 100 µM | SK-MEL-5 27.6 µM | SNB-75 31.2 µM | TK-10 > 100 µM | UACC-62 57.8 µM

Clc1nc(Cl)c(Cc2ccccc2)c(Cl)n1
inactive: DU-145 14.8 µM | HCT-116 1.91 µM | HT-29 3.94 µM | M14 2.82 µM | Malme-3M 5.35 µM | NCI-H522 1.19 µM | NCI/ADR-RES 4.8 µM | OVCAR-3 2.43 µM | OVCAR-4 3.67 µM | OVCAR-5 21.8 µM | PC-3 3.7 µM | RPMI-8226 5.32 µM | RXF 393 4.21 µM | SF-295 14.4 µM | SK-MEL-28 10.5 µM | SK-MEL-5 2.37 µM | SNB-75 5.52 µM | TK-10 18.3 µM | UACC-62 3.69 µM

O=C1OC(C2Cc3ccc4c(c3C2=O)CCCC4)c2ccccc21 (centres undefined)
inactive: A498 16.8 µM | DU-145 74.3 µM | HCT-116 40 µM | HT-29 36.6 µM | M14 50.4 µM | Malme-3M 24 µM | NCI-H522 48.4 µM | NCI/ADR-RES 46 µM | OVCAR-3 34.3 µM | OVCAR-4 24.8 µM | OVCAR-5 > 100 µM | PC-3 26.4 µM | RPMI-8226 42.5 µM | SF-295 40.1 µM | SK-MEL-28 52.5 µM | SK-MEL-5 33.4 µM | SNB-75 65.6 µM | TK-10 73.5 µM | UACC-62 23.7 µM

O=c1cnn(C2OC(C(O)CO)C(O)C2O)c(=O)[nH]1 (centres undefined)
inactive: DU-145 > 100 µM | HCT-116 > 100 µM | HT-29 > 100 µM | M14 > 100 µM | Malme-3M > 100 µM | NCI-H522 > 100 µM | NCI/ADR-RES > 100 µM | OVCAR-3 > 100 µM | OVCAR-4 > 100 µM | OVCAR-5 > 100 µM | PC-3 > 100 µM | RPMI-8226 > 100 µM | RXF 393 > 100 µM | SK-MEL-28 > 100 µM | SK-MEL-5 > 100 µM | SNB-75 > 100 µM | TK-10 > 100 µM | UACC-62 > 100 µM

O=C(NNc1nc(-c2ccccc2)cs1)Nc1ccccc1
inactive: DU-145 31.8 µM | HCT-116 25.5 µM | HT-29 29 µM | M14 28.5 µM | Malme-3M 39.5 µM | NCI/ADR-RES 20.7 µM | OVCAR-3 13.9 µM | OVCAR-4 28.7 µM | OVCAR-5 29.4 µM | PC-3 17.3 µM | RPMI-8226 13.4 µM | RXF 393 6.14 µM | SF-295 28.1 µM | SK-MEL-28 30.4 µM | SK-MEL-5 20.7 µM | SNB-75 23.2 µM | TK-10 19.5 µM | UACC-62 19.4 µM

CCOC(=O)c1cccc([N+](=O)[O-])c1N
inactive: A498 66.2 µM | DU-145 > 100 µM | HCT-116 > 100 µM | HT-29 > 100 µM | M14 > 100 µM | Malme-3M 19.1 µM | NCI-H522 > 100 µM | NCI/ADR-RES > 100 µM | OVCAR-3 > 100 µM | OVCAR-4 > 100 µM | OVCAR-5 > 100 µM | PC-3 > 100 µM | RPMI-8226 > 100 µM | SF-295 > 100 µM | SK-MEL-28 > 100 µM | SK-MEL-5 > 100 µM | SNB-75 62.1 µM | TK-10 > 100 µM | UACC-62 > 100 µM

CC(O)C1(CNc2cc(Cl)nc(N)n2)CCC1 (centres undefined)
inactive: DU-145 > 100 µM | HCT-116 > 100 µM | HT-29 > 100 µM | Malme-3M > 100 µM | NCI-H522 > 100 µM | NCI/ADR-RES > 100 µM | OVCAR-3 > 100 µM | OVCAR-4 > 100 µM | OVCAR-5 > 100 µM | PC-3 > 100 µM | RPMI-8226 > 100 µM | RXF 393 24.2 µM | SF-295 > 100 µM | SK-MEL-28 > 100 µM | SK-MEL-5 70.1 µM | TK-10 > 100 µM | UACC-62 89.9 µM

CCN(CC)CCOCC1CCCN2CCCCC12 (centres undefined)
inactive: DU-145 > 100 µM | HCT-116 > 100 µM | HT-29 > 100 µM | M14 > 100 µM | Malme-3M > 100 µM | NCI/ADR-RES > 100 µM | OVCAR-3 > 100 µM | OVCAR-4 > 100 µM | OVCAR-5 > 100 µM | PC-3 > 100 µM | RPMI-8226 > 100 µM | RXF 393 > 100 µM | SF-295 > 100 µM | SK-MEL-28 > 100 µM | SK-MEL-5 > 100 µM | SNB-75 > 100 µM | TK-10 > 100 µM | UACC-62 > 100 µM

C=CCNC(=S)N/C=C(\C(=O)OCC)C(=O)C(=O)OCC
inactive: DU-145 > 100 µM | HCT-116 > 100 µM | HT-29 > 100 µM | M14 > 100 µM | Malme-3M > 100 µM | NCI-H522 > 100 µM | NCI/ADR-RES > 100 µM | OVCAR-3 > 100 µM | OVCAR-4 > 100 µM | OVCAR-5 > 100 µM | PC-3 > 100 µM | RPMI-8226 > 100 µM | RXF 393 > 100 µM | SF-295 > 100 µM | SK-MEL-28 > 100 µM | SK-MEL-5 > 100 µM | SNB-75 > 100 µM | UACC-62 > 100 µM

CCSC1=CC(=O)c2nc3ccccc3c3ccnc1c23
inactive: DU-145 10.8 µM | HCT-116 2.72 µM | HT-29 3.82 µM | M14 2.38 µM | Malme-3M 1.67 µM | NCI-H522 1.45 µM | NCI/ADR-RES 2.62 µM | OVCAR-3 2.56 µM | OVCAR-4 2.69 µM | OVCAR-5 3.85 µM | PC-3 2.17 µM | RPMI-8226 2.33 µM | RXF 393 4.5 µM | SF-295 13.8 µM | SK-MEL-28 10.1 µM | SNB-75 6.43 µM | TK-10 12.1 µM | UACC-62 2.05 µM

CC1=[N+]([O-])C2(CCCC2)N(O)C1(C)C
inactive: DU-145 > 100 µM | HCT-116 > 100 µM | HT-29 > 100 µM | M14 > 100 µM | Malme-3M > 100 µM | NCI/ADR-RES > 100 µM | OVCAR-3 > 100 µM | OVCAR-4 > 100 µM | OVCAR-5 > 100 µM | PC-3 > 100 µM | RPMI-8226 > 100 µM | RXF 393 > 100 µM | SF-295 > 100 µM | SK-MEL-28 > 100 µM | SK-MEL-5 > 100 µM | TK-10 > 100 µM | UACC-62 > 100 µM

C[C@@H]([C@H]1CC[C@@]2(C)[C@@H]3CC[C@@H]4C(=CC3=CC[C@]12C)CC[C@H](N(C)C)C4(C)C)N(C)C [BUXAMINE A]
inactive: DU-145 > 100 µM | HCT-116 > 100 µM | HT-29 > 100 µM | M14 > 100 µM | Malme-3M > 100 µM | NCI-H522 > 100 µM | NCI/ADR-RES > 100 µM | OVCAR-3 > 100 µM | OVCAR-4 > 100 µM | OVCAR-5 > 100 µM | PC-3 > 100 µM | RPMI-8226 > 100 µM | RXF 393 > 100 µM | SF-295 > 100 µM | SK-MEL-28 > 100 µM | SK-MEL-5 > 100 µM | TK-10 > 100 µM | UACC-62 > 100 µM

Oc1cnc2c(O)cccc2c1 [JINEOL]
inactive: A498 > 100 µM | DU-145 57.3 µM | HCT-116 40.8 µM | HT-29 32.7 µM | M14 24.5 µM | Malme-3M 34.8 µM | NCI-H522 19.2 µM | NCI/ADR-RES 18.2 µM | OVCAR-3 20.6 µM | OVCAR-5 24.9 µM | PC-3 36.8 µM | RPMI-8226 38.1 µM | SF-295 36.8 µM | SK-MEL-28 76.6 µM | SNB-75 20.7 µM | TK-10 53.1 µM | UACC-62 32.7 µM

COc1ccc(/C=C/c2cc(OC)cc(=O)o2)cc1 [YANGONIN]
inactive: DU-145 95.9 µM | HCT-116 77.6 µM | HT-29 > 100 µM | M14 68.4 µM | Malme-3M > 100 µM | NCI/ADR-RES > 100 µM | OVCAR-3 > 100 µM | OVCAR-4 > 100 µM | OVCAR-5 > 100 µM | PC-3 > 100 µM | RPMI-8226 > 100 µM | RXF 393 44.2 µM | SF-295 37.2 µM | SK-MEL-28 > 100 µM | SK-MEL-5 > 100 µM | SNB-75 20 µM | TK-10 45.1 µM | UACC-62 63.1 µM

Source: ChEMBL document CHEMBL1201862, “PubChem BioAssay data set” (2004)
